Consider six molecules from US7868181B2, “Compounds” (AstraZeneca AB, priority 2007, dated 2011).

A word on the pIC50: it is the negative decadic logarithm of the IC50, by convention in mol/L. A high value points to a low IC50. Broadly, the EC80 is the concentration at which the effect reaches the 80% level. What is called EC50 is the midpoint of the concentration-response curve. As a reminder, the ED50 is the dose that gives a 50% effect, or the effect in half of the subjects.

One test addresses T1, human VR1 (Homo sapiens, UniProt Q8NER1).
T1 construct: expressed in transfected cells; host or cells: CHO cells
The test can be described thus: hVR1 FLIPR screening assay, IC50 determination (capsaicin). The class given is cell-based. The settings on record: CHO cells stably expressing hVR1; agonist capsaicin. On the procedure: hVR1FLIPR (Fluorometric Image Plate Reader) Screening Assay
Transfected CHO cells, stably expressing hVR1 (15,000 cells/well) are seeded in 50 μL media in a black clear bottom 384 plate (Greiner) and grown in a humidified incubator (37° C., 2% CO2), 24-30 hours prior to experiment.
Subsequently, the media is removed from the cell plate by inversion and 2 μM Fluo-4 is added using a multidrop (Labsystems). Following the 40 min dye incubation in the dark at 37° C. and 2% CO2, the extracellular dye present is washed away using an EMBLA (Scatron), leaving the cells in 40 μL of assay buffer (1×HBSS, 10 mM D-Glucose, 1 mM CaCl2, 10 mM HEPES, 10×7.5% NaHCO3 and 2.5 mM Probenecid).
FLIPR Assay—IC50 Determination Protocol
For IC50 determinations the fluorescence is read using FLIPR filter 1 (em […]). A cellular baseline recording is taken for 30 seconds, followed by a 20 μL addition of 10, titrated half-log concentrations of the test compound, yielding cellular concentration ranging from 3 μM to 0.1 nM. Data is collected every 2 seconds for a further 5 min prior to the addition of a VR1 agonist solution: either 50 nM solution of capsaicin or MES (2-[N-morpholino] ethanesulfonic acid) buffer (pH 5.2), by the FLIPR pipettor. The FLIPR continues to collect data for a further 4 min. Compounds having antagonistic properties against the hVR1 will inhibit the increase in intracellular calcium in response to the capsaicin addition. This consequently leading to a reduction in fluorescence signal and providing a reduced fluorescence reading, compared with no compound, buffer controls. Data is exported by the FLIPR program as a sum of fluorescence calculated under the curve upon the addition of capsaicin. Maximum inhibition, Hill slope and IC50 data for each compound are generated.

Another test has as its target T2, aldose reductase (Rattus norvegicus, UniProt P07943).
T2 construct: MDS Pharma Services - Taiwan Ltd (contract laboratory that ran the assay)
In words: comparative aldose reductase activity determination (MDS Pharma Services). It is filed as biochemical. Particulars: carried out by MDS Pharma Services. On the procedure:
A comparative aldose reductase activity determination was carried out by the company MDS Pharma Services—Taiwan Ltd; the results of that study is set forth in Table 1 below.

Test [1] deals with carrageenan-induced heat hyperalgesia. In words: Carrageenan model, heat plantar test (paw withdrawal latency). The class given is in vivo. The settings on record: rat, oral. (Carrageenan injected into the paw causes an acute inflammation.)
Test [2] has as its system FCA-induced heat hyperalgesia. In words: Freund's Complete Adjuvant (FCA) model, heat plantar test (paw withdrawal latency). The class given is in vivo. The settings on record: rat, oral.
Where [3] appears, read: tested at Tmax, reversal of heat hyperalgesia.

pIC50: −log10 of the molar value. Where only a bound is given, the exact number is not on record here.

T1 sequence (Q8NER1 whole entry): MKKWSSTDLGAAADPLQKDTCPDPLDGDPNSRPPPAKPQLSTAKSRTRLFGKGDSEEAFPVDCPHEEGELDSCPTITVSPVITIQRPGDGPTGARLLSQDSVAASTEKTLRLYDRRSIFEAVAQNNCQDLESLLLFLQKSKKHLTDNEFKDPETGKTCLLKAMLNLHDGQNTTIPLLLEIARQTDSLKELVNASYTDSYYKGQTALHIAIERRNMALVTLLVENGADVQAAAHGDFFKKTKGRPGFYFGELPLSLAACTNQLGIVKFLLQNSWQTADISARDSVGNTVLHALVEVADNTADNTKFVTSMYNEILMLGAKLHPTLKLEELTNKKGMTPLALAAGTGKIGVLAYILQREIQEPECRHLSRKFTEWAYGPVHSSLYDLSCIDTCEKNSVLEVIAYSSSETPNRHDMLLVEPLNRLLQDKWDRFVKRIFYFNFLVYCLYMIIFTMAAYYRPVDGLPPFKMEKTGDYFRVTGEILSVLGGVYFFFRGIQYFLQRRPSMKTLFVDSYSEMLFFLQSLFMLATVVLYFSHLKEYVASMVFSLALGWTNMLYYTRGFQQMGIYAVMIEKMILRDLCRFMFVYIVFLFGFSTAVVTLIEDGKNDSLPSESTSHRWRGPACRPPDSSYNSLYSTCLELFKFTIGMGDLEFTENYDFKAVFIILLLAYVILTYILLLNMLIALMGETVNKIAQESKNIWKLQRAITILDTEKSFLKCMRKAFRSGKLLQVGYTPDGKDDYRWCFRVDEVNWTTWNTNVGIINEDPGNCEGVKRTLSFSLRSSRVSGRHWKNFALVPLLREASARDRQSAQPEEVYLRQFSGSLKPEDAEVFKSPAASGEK

As to `O=C1NC(=O)[C@]2(N1)C(=O)N(C/C=C/c1ccc(Cl)c(Cl)c1)c1ccccc12` (single isomer, unassigned) [Enantiomer 1A], the pIC50 at human VR1 was 5.00; at aldose reductase it was 7.60.

Turning to `O=C1NC(=O)[C@@]2(N1)C(=O)N(C/C=C/c1ccc(Cl)c(Cl)c1)c1ccccc12` (single isomer, unassigned) [Enantiomer 1B], the negative logarithm of the IC50 (pIC50) at human VR1 was 7.37; against aldose reductase it was 6.12. Also, the “Extrapolated Emax” value is reported as 88% in test [1] (non-linear regression) and over 100% in test [2] (non-linear regression). The 80% effect concentration (EC80) worked out at 10700 nM in test [1] (reversal of heat hyperalgesia) and 100000 nM in test [2] (reversal of heat hyperalgesia). Further, the Emax observed in test [1] (reversal of heat hyperalgesia) is 76%; in test [2] (reversal of heat hyperalgesia), 100%. For the same molecule, the concentration for a half-maximal effect (EC50) amounted to 4800 nM in test [1] (setting [3]) and 24000 nM in test [2] (setting [3]). The ED50 in test [1] (setting [3]) is 10.6 µmol/kg; in test [2] (setting [3]) it was 52.8 µmol/kg.

Take `O=C1NC(=O)[C@]2(N1)C(=O)N(C/C=C/c1ccc(Cl)c(C(F)(F)F)c1)c1ccccc12` (single isomer, unassigned) [Enantiomer 2A]: the negative-log IC50 (pIC50) at human VR1 is 5.41; at aldose reductase, 7.48.

For the molecule `O=C1NC(=O)[C@@]2(N1)C(=O)N(C/C=C/c1ccc(Cl)c(C(F)(F)F)c1)c1ccccc12` (single isomer, unassigned) [Enantiomer 2B], the pIC50 on human VR1 is 6.62; against aldose reductase, 5.48.

For the molecule `O=C1NC(=O)[C@]2(N1)C(=O)N(CC#Cc1ccc(Cl)c(Cl)c1)c1ccccc12` (single isomer, unassigned) [Enantiomer 3A], the negative logarithm of the IC50 (pIC50) on human VR1 is 4.81; at aldose reductase, 7.14.

On to `O=C1NC(=O)[C@@]2(N1)C(=O)N(CC#Cc1ccc(Cl)c(Cl)c1)c1ccccc12` (single isomer, unassigned) [Enantiomer 3B], for which the figures for the pIC50 on human VR1 and against aldose reductase were 6.06 and 6.01, respectively.
